# Results taken from PMC6271282, “Playing with Opening and Closing of Heterocycles: Using the Cusmano-Ruccia Reaction to Develop a Novel Class of Oxadiazolothiazinones, Active as Calcium Channel Modulators and P-Glycoprotein Inhibitors” (Molecules, 2014).
# Experiments:
# [1] = target: T1, L-type Ca2+ channel (LTCC, Cav1.2) (Rattus norvegicus, UniProt P22002); test: whole-cell patch clamp, IBa(L); also potentiates [3H]diltiazem binding in rat cardiomyocytes ([…]); format: cell-based
# T1 construct: gene Cacna1c; native channel in single rat tail main artery myocytes
# [2] = target: T1, L-type Ca2+ channel (LTCC, Cav1.2); test: whole-cell patch clamp, IBa(L); format: cell-based
# T1 sequence (P22002 whole entry): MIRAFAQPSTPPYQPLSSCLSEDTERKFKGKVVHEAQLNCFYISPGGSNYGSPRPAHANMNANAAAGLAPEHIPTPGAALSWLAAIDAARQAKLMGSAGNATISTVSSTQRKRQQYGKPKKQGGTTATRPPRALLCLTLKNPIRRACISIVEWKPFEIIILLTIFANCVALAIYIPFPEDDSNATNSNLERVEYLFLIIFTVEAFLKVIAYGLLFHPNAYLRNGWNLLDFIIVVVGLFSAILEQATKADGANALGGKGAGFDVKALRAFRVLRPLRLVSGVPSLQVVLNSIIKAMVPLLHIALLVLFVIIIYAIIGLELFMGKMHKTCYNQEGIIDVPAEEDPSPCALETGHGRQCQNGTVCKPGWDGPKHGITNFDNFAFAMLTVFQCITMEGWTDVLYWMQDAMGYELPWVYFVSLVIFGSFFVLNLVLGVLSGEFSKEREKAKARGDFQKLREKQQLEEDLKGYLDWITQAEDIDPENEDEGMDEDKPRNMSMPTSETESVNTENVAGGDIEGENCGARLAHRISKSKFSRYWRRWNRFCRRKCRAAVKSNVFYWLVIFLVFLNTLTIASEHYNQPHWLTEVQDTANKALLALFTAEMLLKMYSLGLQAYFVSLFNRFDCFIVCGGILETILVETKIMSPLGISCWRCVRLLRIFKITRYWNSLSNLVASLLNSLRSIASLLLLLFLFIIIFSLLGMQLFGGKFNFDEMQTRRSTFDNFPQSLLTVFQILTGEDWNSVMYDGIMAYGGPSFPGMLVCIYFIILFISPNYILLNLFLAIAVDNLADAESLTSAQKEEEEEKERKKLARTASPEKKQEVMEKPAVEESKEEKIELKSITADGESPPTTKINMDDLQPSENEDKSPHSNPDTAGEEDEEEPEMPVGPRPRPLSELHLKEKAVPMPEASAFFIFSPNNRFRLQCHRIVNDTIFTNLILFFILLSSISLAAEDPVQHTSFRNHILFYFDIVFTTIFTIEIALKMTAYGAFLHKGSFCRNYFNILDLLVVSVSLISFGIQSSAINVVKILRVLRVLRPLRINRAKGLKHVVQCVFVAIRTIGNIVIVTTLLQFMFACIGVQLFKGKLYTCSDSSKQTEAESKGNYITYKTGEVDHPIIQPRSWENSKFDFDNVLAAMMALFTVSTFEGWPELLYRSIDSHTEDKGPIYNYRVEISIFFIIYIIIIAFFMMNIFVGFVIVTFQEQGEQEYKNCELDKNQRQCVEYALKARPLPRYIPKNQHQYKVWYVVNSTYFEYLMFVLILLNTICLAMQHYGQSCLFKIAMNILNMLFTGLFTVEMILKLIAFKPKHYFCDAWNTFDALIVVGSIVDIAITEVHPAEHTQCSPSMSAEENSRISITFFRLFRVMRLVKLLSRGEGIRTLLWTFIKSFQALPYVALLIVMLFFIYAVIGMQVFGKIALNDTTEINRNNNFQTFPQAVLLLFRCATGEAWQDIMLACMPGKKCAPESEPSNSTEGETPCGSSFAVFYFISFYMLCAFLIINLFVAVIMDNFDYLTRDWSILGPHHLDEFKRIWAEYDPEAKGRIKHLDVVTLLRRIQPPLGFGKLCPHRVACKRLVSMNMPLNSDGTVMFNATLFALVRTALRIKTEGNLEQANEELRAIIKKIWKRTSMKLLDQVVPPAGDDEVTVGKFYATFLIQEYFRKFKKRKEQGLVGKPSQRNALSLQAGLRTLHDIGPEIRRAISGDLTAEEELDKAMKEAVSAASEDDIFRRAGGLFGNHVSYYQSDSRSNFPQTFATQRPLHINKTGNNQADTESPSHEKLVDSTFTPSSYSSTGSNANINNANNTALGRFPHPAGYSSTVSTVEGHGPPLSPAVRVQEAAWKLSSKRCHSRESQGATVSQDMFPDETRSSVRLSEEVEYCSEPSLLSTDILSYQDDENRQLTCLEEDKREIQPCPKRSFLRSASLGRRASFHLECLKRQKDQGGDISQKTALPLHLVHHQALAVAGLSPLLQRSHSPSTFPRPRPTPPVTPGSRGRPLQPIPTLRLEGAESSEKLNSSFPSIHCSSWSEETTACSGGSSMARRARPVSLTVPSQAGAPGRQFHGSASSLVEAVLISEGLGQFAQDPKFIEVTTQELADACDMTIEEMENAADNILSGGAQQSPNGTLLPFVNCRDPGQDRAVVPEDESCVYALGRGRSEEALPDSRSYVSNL
Structure (SMILES),IC50 [1],IC50 [2]
"O=c1onc2n1-c1ccc(Cl)cc1SC2(O)c1ccc(Br)cc1 (centres unmarked) [compound 30, 4-(4-Bromophenyl)-7-chloro-4-hydroxy-4H-[1,2,4]oxadiazolo[3,4-c][1,4]benzothiazin-1-one]",~3 µM,
"CC1=CSC(OCCN2CCCCC2)(c2ccc(Br)cc2)c2noc(=O)n21 (centres unmarked) [compound 32, 8-(4-Bromophenyl)-5-methyl-8-(2-piperidin-1-ylethoxy)-8H-[1,2,4]oxadiazolo[3,4-c][1,4]thiazin-3-one]",,~30 µM
